Patent EP1037653B1, “COMPOSITIONS AND METHODS FOR REGULATING PHAGOCYTOSIS AND ICAM-1 EXPRESSION” (JOHNSON & JOHNSON CONSUMER COMPANIES, INC., priority 1997, dated 1999)

Assays:
[1] = test system: macrophage cell line IC-21; assay: Fluorescent microsphere ingestion (phagocytosis); assay type: cell-based; conditions: IC-21 macrophages
Protocol: (§1) In this example, human primary keratinocytes or the human keratinocyte cell line HaCaT were used as in vitro model systems to study the effect of PAR-2 regulators on keratinocyte phagocytosis. The human primary keratinocytes used are commercially available from Clonetics (San Diego, CA). Cells were plated on chamber slides, at 2 chambers/slide and 60,000 cells/chamber. Cells were treated once daily, for two or three days, with Compound I (1µM), SLIGRL (10µM), or vehicle (Phosphate-buffered saline, ("PBS") from Gibco-BRL (Gaithersburg, MD). After two or three days of exposure to the test compounds, cells were exposed to Nile-red or FITC fluorescent microspheres, 1 µm in diameter, 50 microspheres/cell, for two hours at 37°C. Microspheres were from Molecular Probes (Eugene, OR), and were processed according to manufacturer's instructions. Following that treatment, cells were incubated with 15% Fetal Bovine Serum ("FBS", from Gibco-BRL), for 15 minutes at 37°C and rinsed with PBS. At that time, chambers were separated from the slides, and the slides were covered with glycerol and coverslips. Fluorescent microscopy was performed using a Zeiss Axiovert 35 or a Nikon Optiphot-2 microscope.
The experiment described in Example 1 was repeated using the macrophage cell line IC-21 (obtained from the ATCC), which shares phagocytic characteristics with peritoneal macrophages. […]

Keratinocytes [2] = assay: Melanin uptake by keratinocytes, Fontana-Mason staining; assay type: cell-based; conditions: treated two days; melanin powder two hours; Figure 5A; same results with isolated melanosomes (Figure 5B)
Protocol: This example tests the ability of keratinocytes to acquire melanin or melanosomes in vitro, and thus function as a simplified system for melanosome uptake in the skin. Keratinocytes were plated in glass chamber-slides as described earlier, and were treated for two days with SLIGRL, Compound I or STI. At that time, melanin powder (from Sigma, St. Louis, MO) was mixed in sterile PBS at 10 µg/ml, and was added to the culture media (1:10 dilution) for two hours. Cells were then washed with PBS and stained with Fontana-Mason ("F&M") staining. F&M stains silver nitrate-reducing molecules, thereby permitting the identification of melanins inside the keratinocytes. […] This system, therefore, can mimic melanosome transfer and melanin distribution in vivo, as skin keratinocytes use melanin as an UV-protective cap over their nuclei. […] The same results were also observed using melanosomes isolated as described in S. Orlow, et al., J.I.D. 100:55-64 (1993) (Figure 5B).

Human keratinocytes [3] = assay: Timing of effect on keratinocyte microsphere phagocytosis; assay type: cell-based; parameters: key: +: Plus signs indicate an effect on phagocytosis; -: minus signs indicate no effect on phagocytosis; -/+: plus/minus signs indicate a marginal effect on phagocytosis; conditions: decrease for Compound I, increase for SLIGRL
Protocol: as §1
Human keratinocytes were treated with Compound I or SLIGRL for periods of time ranging from one hour to two days. At the end of the treatment period, the cells were treated with microspheres as described in Example 1. […] Plus signs indicate an effect on phagocytosis, minus signs indicate no effect on phagocytosis, and plus/minus signs indicate a marginal effect on phagocytosis. The effects measured were a decrease for Compound I and an increase for SLIGRL. […] This implies that the PAR-2 signaling results in new protein synthesis, a reduction in protein synthesis when a turnover time is required to eliminate the existing relevant protein(s), or a rearrangement of proteins (as occurs in the reorganization of cytoskeletal components).

[4] = test system: macrophage cell line IC-21; assay: Vybrant Phagocytosis Assay Kit, ingestion of fluorescein-labeled E. Coli K-12 particles; assay type: cell-based; conditions: treated overnight; 100nM Compound I, 5µM SLIGRL, 0.1 mg/ml STI; untreated control = 100; one of three experiments
Protocol: To better quantify the level of phagocytosis, the "vybrant™ Phagocytosis Assay Kit" of Molecular Probes (Eugene, Oregon) was used, following manufacturer's instructions, with modification of cell culture conditions for the IC-21 cell line. This kit uses Fluorescein-labeled E. Coli K-12 particles, and is designed for quantifying the effects of drugs or other environmental factors on phagocytic functions. Macrophages were treated overnight with 100nM of Compound I, 5µM of SLIGRL, or 0.1 mg/ml of STI, all dissolved in PBS. The ability of the treated macrophages to ingest the fluorescent E. Coli, as measured by this kit, is documented in Table 1. This experiment was repeated three times.
In order to verify the quantitative nature of the macrophage-phagocytosis assay, a dose-response experiment was performed. Macrophages were treated with 0, 0.01, 0.1 and 1 mg/ml of STI, and the experiment was performed as described in Example 3. […] Each experiment was repeated three times.

Human keratinocytes [5] = assay: Keratinocyte microsphere phagocytosis dose-response, image analysis of fluorescent beads; assay type: cell-based; conditions: two days; SLIGRL 0, 5 and 10 µM; Compound I 1pM to 1µM; STI 0.01 to 1 mg/ml
Protocol: as §1, with “microscope. […]” for “microscope.”
Image analysis of the fluorescent beads inside the keratinocytes was used as an alternative way to quantify the phagocytic effect in this system. […]

[6] = test system: human primary keratinocytes; assay: Fluorescent microsphere ingestion (phagocytosis), fluorescence microscopy; assay type: cell-based; conditions: treated two days; Compound I 1µM, SLIGRL 10µM; vs vehicle control; Figure 1
Protocol: (§2) In order to study the role of the PAR-2 pathway in phagocytosis, several in vitro model systems were used. One system used contained primary human keratinocytes or a human keratinocyte cell line. In this and a number of following examples, cells were treated with test compounds for different amounts of time (from one hour to three days), and samples were then incubated with fluorescent microspheres for two hours. The beads ingested by the cells were photographed using fluorescence microscopy.
(§3) In this example, human primary keratinocytes or the human keratinocyte cell line HaCaT were used as in vitro model systems to study the effect of PAR-2 regulators on keratinocyte phagocytosis. The human primary keratinocytes used are commercially available from Clonetics (San Diego, CA). Cells were plated on chamber slides, at 2 chambers/slide and 60,000 cells/chamber. […]

Keratinocytes [7] = assay: F-actin staining, cytoskeletal organization; assay type: cell-based; conditions: Compound I 10 nM, STI 0.1 mg/ml, SLIGRL 5 µM; Figure 9
Protocol: Therefore, the organization of F-actin filaments following PAR-2 modulation was tested. Keratinocytes were treated with Compound I (10 nM), STI (0.1 mg/ml), or with SLIGRL (5 µM) as described in Example 1, and stained for F-actin using standard techniques.

MelanoDerm equivalents = assay: Melanosome transfer (pigmentation) in melanocyte-containing equivalents; assay type: cell-based; conditions: same result in monolayer co-cultures with keratinocyte/melanocyte contact
Protocol: (§4) Since PAR-2 is expressed in keratinocytes, but not in melanocytes, the possible requirement of keratinocyte-melanocyte contact was tested for the effect of Compound I and SLIGRL on melanosome phagocytosis by the keratinocytes. Primary melanocyte cultures (commercially available from Clonetics, San Diego) were plated under epidermal equivalents (EpiDerm, of MatTek, Ashland, MA) to create an equivalent-monolayer co-culture with no contact between keratinocytes and melanocytes. These co-cultures were compared to MelanoDerm equivalents (of MatTek), where melanocytes are present in the basal layer of the equivalent. Cultures were treated with Compound I, with the […] agonist SLIGRL. As set forth in Table 3, keratinocytes are indicated by "K", melanocytes are indicated by "M", and lack of keratinocyte-melanocyte contact is indicated as "no K-M cont". […] The same result was also observed with monolayer keratinocyte/melanocyte co-cultures having keratinocyte/melanocyte contact.

ICAM-1 [8] = assay: ICAM-1 immuno-precipitation and Western blotting in keratinocytes; assay type: cell-based; conditions: treated keratinocytes; Figure 6B
Protocol: Immuno-precipitation and Western blotting experiments were performed, according to known methods, to assess the level of ICAM-1 protein in treated keratinocytes.

Human PMN cells = assay: Boyden chamber chemotactic cell migration towards FMLP; assay type: cell-based; conditions: with FMLP; cells counted at 115 microns; pretreated with 5 or 0.5 mg/ml STI, 1 or 0.1 µM Compound I; FMLP alone 41
Protocol: Since ICAM-1 is involved in cell migration, cell migration towards a chemotactic peptide was studied in cells treated with Compound I and STI. Human PMN cells were placed in one side of a Boyden chamber, using standard techniques, and a chemotactic peptide (FMLP) was placed in the other chamber. Cells were allowed to migrate into the second chamber, and the number of migrating cells per field and distance of migration were calculated. The experiment was repeated with PMN cells pretreated with one of the following: 5 or 0.5 mg/ml STI, 1 or 0.1 µM Compound I, a buffer vehicle, and with and without chemotactic peptide. The number of cells per field that migrated the same distance as the untreated control was measured. Without the peptide and with no treatment, an average of 19 cells/field were migrating a distance of 80 microns. […] In other words, no cells (or less than 5/field) were identified at 115 microns. […] The ability to inhibit PMN migration is an important constituent of anti-inflammatory compounds.

Keratinocytes [9] = assay: Scanning electron microscopy of cell podia; assay type: cell-based; conditions: treated two days; vs vehicle-treated controls; Figure 8
Protocol: Both phagocytosis and cell migration involve changes in cell shape. Therefore, the effect of the PAR-2 pathway reagents on cell podia were studied using scanning electron microscopy. Keratinocytes were treated with Compound I (identified as "SH00230"), SLIGRL and a buffer vehicle for two days, and then processed for SEM using standard techniques. […] In other words, the cells' "fingers" are shorter and malformed, so they cannot grasp objects as well as can the control cells. […] In other words, these cells have a greater probability for productive interaction with particles. Comparing these SEM pictures in Figure 8, it is clear that SLIGRL-treated cells have a greater ability to interact with particles, while Compound 1-treated cells are less suited for such a task.

[10] = test system: Primary melanocyte cultures plated under epidermal equivalents (EpiDerm); assay: Melanosome transfer (pigmentation) in equivalent-monolayer co-culture without keratinocyte-melanocyte contact; assay type: cell-based; conditions: no keratinocyte/melanocyte contact
Protocol: as §4

[11] = test system: human keratinocyte cell line HaCaT; assay: Fluorescent microsphere ingestion (phagocytosis), fluorescence microscopy; assay type: cell-based; conditions: Figure 2, repeated at least three times
Protocol: as §2, §3

ICAM-1 [12] = assay: ICAM-1 immunofluorescent staining of keratinocytes; assay type: cell-based, human; conditions: vs untreated keratinocytes; Figure 6A
Protocol: Intercellular adhesion molecule-1 (ICAM-1) is an inducible cell-surface glycoprotein that is implicated in cell-cell adhesion, cell membrane raffling and phagocytosis. Therefore, the effect of PAR-2 modulation on ICAM-1 was tested. Keratinocytes were grown in chamber slides and treated with SLIGRL, Compound I and STI as described, followed by immunofluorescent staining for ICAM-1 using standard procedures. Normal donkey serum, (used at 1:5 dilution), was obtained from Jackson Immunoresearch Laboratory (Westgrove, PA). A polyclonal goat antihuman ICAM-1 antibody, (used at 1:200 dilution), was obtained from R&D Systems (Minneapolis, MN), and FITC-conjugated donkey anti-goat antibody was obtained from Jackson Immunoresearch Laboratory. […] In untreated keratinocytes, ICAM-1 was localized mainly to the plasma membrane, with some staining at the nuclear membrane.

(S)-N-Methyl-D-phenylalanyl-N-[4-[(aminoiminomethyl)amino]-1-(2-benzothiazolylcarbonyl)butyl]-L-prolinamide [Compound I]
number of microspheres ingested [1]: reduced | uptake of melanin by keratinocytes (Keratinocytes [2]): dramatically reduce the uptake of melanin | effect on phagocytosis (Human keratinocytes [3]; Time of Treatment 1 hour): - | effect on phagocytosis (Human keratinocytes [3]; Time of Treatment 2 hours): - | effect on phagocytosis (Human keratinocytes [3]; Time of Treatment 4 hours): - | effect on phagocytosis (Human keratinocytes [3]; Time of Treatment 6 hours): - | effect on phagocytosis (Human keratinocytes [3]; Time of Treatment 8 hours): -/+ | effect on phagocytosis (Human keratinocytes [3]; Time of Treatment 16 hours): + | effect on phagocytosis (Human keratinocytes [3]; Time of Treatment 24 hours): + | effect on phagocytosis (Human keratinocytes [3]; Time of Treatment 48 hours): + | % effect (ingestion) [4]: 89.9 +/- 13.6% | phagocytosis with increasing concentrations (Human keratinocytes [5]): dose-dependent decrease in phagocytosis | quantity of ingested microspheres [6]: dramatic reduction in the quantity of ingested microspheres | actin filaments organization (Keratinocytes [7]): reduced the ordered organization of the cell cortex | pigmentation by affecting melanosome transfer (MelanoDerm equivalents): reduced | level of ICAM-1 protein (ICAM-1 [8]): decreased the level of ICAM-1 expression | Cells/Field (Human PMN cells): <5 | shape of cell podia (Keratinocytes [9]): dramatically shorter podia | effect on melanosome transfer, measured as the level of pigmentation [10]: no effect on melanosome transfer | microsphere ingestion [11]: reduce microsphere ingestion | intracellular localization of ICAM-1 (ICAM-1 [12]): less staining was observed at the cytoplasmic membrane, and more at the nuclear membrane
